In ChEMBL document CHEMBL3621049, “Imidazole derivatives show anticancer potential by inducing apoptosis and cellular senescence” (2014):
The source made the active and inactive calls.

Legend:
Assay type in all cases: functional, cell-based
HCC 2998 = assay: Growth inhibition of human HCC2998 cells at 10 uM by sulforhodamine B assay
OVCAR-8 = assay: Growth inhibition of human OVCAR8 cells at 10 uM by sulforhodamine B assay
NCI-H226 = assay: Growth inhibition of human NCI-H226 cells at 10 uM by sulforhodamine B assay
NCI-H522 = assay: Growth inhibition of human NCI-H522 cells at 10 uM by sulforhodamine B assay
COLO 205 = assay: Growth inhibition of human COLO205 cells at 10 uM by sulforhodamine B assay
HL-60(TB) = assay: Growth inhibition of human HL-60(TB) cells at 10 uM by sulforhodamine B assay
KM12 = assay: Growth inhibition of human KM12 cells at 10 uM by sulforhodamine B assay
MDA-MB-435 = assay: Growth inhibition of human MDA-MB-435 cells at 10 uM by sulforhodamine B assay
NCI-H322M = assay: Growth inhibition of human NCI-H322M cells at 10 uM by sulforhodamine B assay
RXF 393 = assay: Growth inhibition of human RXF393 cells at 10 uM by sulforhodamine B assay
OVCAR-3 = assay: Growth inhibition of human OVCAR3 cells at 10 uM by sulforhodamine B assay
PC-3 = assay: Growth inhibition of human PC3 cells at 10 uM by sulforhodamine B assay
MCF7 = assay: Growth inhibition of human MCF7 cells at 10 uM by sulforhodamine B assay
SK-OV-3 = assay: Growth inhibition of human SKOV3 cells at 10 uM by sulforhodamine B assay
HT-29 = assay: Growth inhibition of human HT-29 cells at 10 uM by sulforhodamine B assay
TK-10 = assay: Growth inhibition of human TK10 cells at 10 uM by sulforhodamine B assay
UACC-62 = assay: Growth inhibition of human UACC62 cells at 10 uM by sulforhodamine B assay
MOLT-4 = assay: Growth inhibition of human MOLT4 cells at 10 uM by sulforhodamine B assay
SNB-19 = assay: Growth inhibition of human SNB19 cells at 10 uM by sulforhodamine B assay
OVCAR-4 = assay: Growth inhibition of human OVCAR4 cells at 10 uM by sulforhodamine B assay
SF-539 = assay: Growth inhibition of human SF539 cells at 10 uM by sulforhodamine B assay
RPMI-8226 = assay: Growth inhibition of human RPMI8226 cells at 10 uM by sulforhodamine B assay
HCT-15 = assay: Growth inhibition of human HCT15 cells at 10 uM by sulforhodamine B assay
BT-549 = assay: Growth inhibition of human BT549 cells at 10 uM by sulforhodamine B assay
U-251 = assay: Growth inhibition of human U251 cells at 10 uM by sulforhodamine B assay
SW-620 = assay: Growth inhibition of human SW620 cells at 10 uM by sulforhodamine B assay
UO-31 = assay: Growth inhibition of human UO31 cells at 10 uM by sulforhodamine B assay
CAKI-1 = assay: Growth inhibition of human Caki1 cells at 10 uM by sulforhodamine B assay
SNB-75 = assay: Growth inhibition of human SNB75 cells at 10 uM by sulforhodamine B assay
SF-268 = assay: Growth inhibition of human SF268 cells at 10 uM by sulforhodamine B assay
NCI-H23 = assay: Growth inhibition of human NCI-H23 cells at 10 uM by sulforhodamine B assay
SK-MEL-5 = assay: Growth inhibition of human SK-MEL-5 cells at 10 uM by sulforhodamine B assay
A549 = assay: Growth inhibition of human A549/ATCC cells at 10 uM by sulforhodamine B assay
Malme-3M = assay: Growth inhibition of human MALME-3M cells at 10 uM by sulforhodamine B assay
A498 = assay: Growth inhibition of human A498 cells at 10 uM by sulforhodamine B assay
CCRF-CEM = assay: Growth inhibition of human CCRF-CEM cells at 10 uM by sulforhodamine B assay
MDA-MB-231 = assay: Growth inhibition of human MDA-MB-231 cells at 10 uM by sulforhodamine B assay
NCI-H460 = assay: Growth inhibition of human NCI-H460 cells at 10 uM by sulforhodamine B assay
Hs-578T = assay: Growth inhibition of human Hs 578T cells at 10 uM by sulforhodamine B assay
SK-MEL-2 = assay: Growth inhibition of human SK-MEL-2 cells at 10 uM by sulforhodamine B assay
SR = assay: Growth inhibition of human SR cells at 10 uM by sulforhodamine B assay
T47D = assay: Growth inhibition of human T47D cells at 10 uM by sulforhodamine B assay
LOX IMVI = assay: Growth inhibition of human LOXIMVI cells at 10 uM by sulforhodamine B assay
K562 = assay: Growth inhibition of human K562 cells at 10 uM by sulforhodamine B assay
SK-MEL-28 = assay: Growth inhibition of human SK-MEL-28 cells at 10 uM by sulforhodamine B assay
IGROV-1 = assay: Growth inhibition of human IGROV1 cells at 10 uM by sulforhodamine B assay
HOP-92 = assay: Growth inhibition of human HOP92 cells at 10 uM by sulforhodamine B assay
DU-145 = assay: Growth inhibition of human DU145 cells at 10 uM by sulforhodamine B assay
M14 = assay: Growth inhibition of human M14 cells at 10 uM by sulforhodamine B assay
ACHN = assay: Growth inhibition of human ACHN cells at 10 uM by sulforhodamine B assay
HOP-62 = assay: Growth inhibition of human HOP62 cells at 10 uM by sulforhodamine B assay
SF-295 = assay: Growth inhibition of human SF295 cells at 10 uM by sulforhodamine B assay
SN12C = assay: Growth inhibition of human SN12C cells at 10 uM by sulforhodamine B assay
OVCAR-5 = assay: Growth inhibition of human OVCAR5 cells at 10 uM by sulforhodamine B assay
NCI/ADR-RES = assay: Growth inhibition of human NCI/ADR-RES cells at 10 uM by sulforhodamine B assay
UACC-257 = assay: Growth inhibition of human UACC257 cells at 10 uM by sulforhodamine B assay
MDA-MB-468 = assay: Growth inhibition of human MDA-MB-468 cells at 10 uM by sulforhodamine B assay
786-0 = assay: Growth inhibition of human 786-0 cells at 10 uM by sulforhodamine B assay
HCT-116 = assay: Growth inhibition of human HCT116 cells at 10 uM by sulforhodamine B assay

Measured: growth inhibition (GI)

C#CCn1c(-c2ccc(OC)c(OC3CCCC3)c2)nc(-c2ccccc2)c1-c1ccccc1
active: all assays above
